# Where a name gives a salt, the structure may show the parent alone.
# Biological target: T1, human PTH1 receptor (Homo sapiens, UniProt Q03431)
# T1 sequence (Q03431 27-593): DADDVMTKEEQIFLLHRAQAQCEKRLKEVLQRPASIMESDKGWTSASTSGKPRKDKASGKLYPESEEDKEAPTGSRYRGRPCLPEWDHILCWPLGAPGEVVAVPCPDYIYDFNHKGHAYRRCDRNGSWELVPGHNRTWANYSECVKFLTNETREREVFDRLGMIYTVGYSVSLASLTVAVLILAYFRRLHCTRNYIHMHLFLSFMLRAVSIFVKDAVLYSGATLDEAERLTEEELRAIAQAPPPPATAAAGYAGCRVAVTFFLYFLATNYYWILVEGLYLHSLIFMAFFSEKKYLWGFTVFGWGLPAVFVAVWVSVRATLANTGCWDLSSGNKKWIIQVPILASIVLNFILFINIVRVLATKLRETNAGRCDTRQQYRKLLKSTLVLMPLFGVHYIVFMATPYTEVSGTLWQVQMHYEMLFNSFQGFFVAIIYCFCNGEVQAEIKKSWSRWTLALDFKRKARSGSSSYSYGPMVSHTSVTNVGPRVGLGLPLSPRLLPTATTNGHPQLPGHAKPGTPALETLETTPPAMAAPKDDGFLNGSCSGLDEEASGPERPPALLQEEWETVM
# Assay: In vitro cAMP signal activity in HKRK-B7 cells (LLC-PK1 cells overexpressing the human PTH1 receptor)
# Assay type: cell-based
# Conditions: HKRK-B7 cells; compound at 1×10^−3 M; […]; 0.1 µM
row,Compound,cAMP production activity (%)
1,"CNN(C)C(=O)c1cc(C)c(CCS(=O)(=O)N2CCC3(CC2)N=C(C2CCC(CCC(F)(F)F)CC2)NC3=O)c(C)c1 (centres unmarked) [Compound 888, 3,5-Dimethyl-4-(2-{4-oxo-2-[4-(3,3,3-trifluoro-propyl)-cyclohexyl]-1,3,8-triaza-spiro[4.5]dec-1-ene-8-sulfonyl}-ethyl)-benzoic acid N,N′-dimethyl-hydrazide]",86

# Same assay, conditions: HKRK-B7 cells; compound at 1×10^−3 M; cAMP produced as percentage of that produced by hPTH(1-34) at 100 nM
row,Compound,cAMP production activity (%)
1,"CC[C@H]1CC[C@H](C2=NC3(CCN(S(=O)(=O)CCc4ccc(N5C(=O)NC(=O)C5(C)C)cc4C)CC3)C(=O)N2)CC1 [Compound 887, 1-(4-{2-[2-(4-ethyl-cyclohexyl)-4-oxo-1,3,8-triaza-spiro[4.5]dec-1-ene-8-sulfonyl]-ethyl}-3-methyl-phenyl)-5,5-dimethyl-imidazolidine-2,4-dione]",58
2,"Cc1cc(OC2CCNCC2)ccc1CCS(=O)(=O)N1CCC2(CC1)N=C(c1cccc(OC(F)(F)F)c1)NC2=O [Compound 889, 8-{2-[2-Methyl-4-(piperidin-4-yloxy)-phenyl]-ethanesulfonyl}-2-(3-trifluoromethoxy-phenyl)-1,3,8-triaza-spiro[4.5]dec-1-en-4-one hydrochloride]",26
3,"Cc1cc(C(=O)N(C)C)ccc1CCS(=O)(=O)N1CCC2(CC1)N=C(C1CCC(F)(F)CC1)NC2=O [Compound 890, 4-{2-[2-(4,4-Difluoro-cyclohexyl)-4-oxo-1,3,8-triaza-spiro[4.5]dec-1-ene-8-sulfonyl]-ethyl}-3,N,N-trimethyl-benzamide]",61
4,"Cc1cc(C(=O)N(C)C)ccc1CCS(=O)(=O)N1CCC2(CC1)N=C(c1ccc(S(C)(=O)=O)cc1)NC2=O [Compound 891, 4-{2-[2-(4-methanesulfonyl-phenyl)-4-oxo-1,3,8-triaza-spiro[4.5]dec-1-ene-8-sulfonyl]-ethyl}-3,N,N-trimethyl-benzamide]",8.6
5,"Cc1cc(C(=O)N(C)C)ccc1CCS(=O)(=O)N1CCC2(CC1)N=C(/C=C/c1cccc(C(F)(F)F)c1)NC2=O [Compound 892, 3,N,N-trimethyl-4-(2-{4-oxo-2-[(E)-2-(3-trifluoromethyl-phenyl)-vinyl]-1,3,8-triaza-spiro[4.5]dec-1-ene-8-sulfonyl}-ethyl)-benzamide]",51
6,"Cc1cc(C(=O)N(C)C)ccc1CCS(=O)(=O)N1CCC2(CC1)N=C(C#Cc1ccccc1)NC2=O [Compound 893, 3,N,N-trimethyl-4-[2-(4-oxo-2-phenylethynyl-1,3,8-triaza-spiro[4.5]dec-1-ene-8-sulfonyl)-ethyl]-benzamide]",14
7,"CCCCC1CCC(C2=NC3(CCN(S(=O)(=O)CCc4ccc(C(=O)N(C)C)cc4C)CC3)C(=O)N2)CC1 (centres unmarked) [Compound 894, 4-{2-[2-(4-butyl-cyclohexyl)-4-oxo-1,3,8-triaza-spiro[4.5]dec-1-ene-8-sulfonyl]-ethyl}-3,N,N-trimethyl-benzamide]",85
8,"Cc1cc(C(=O)N(C)C)ccc1CCS(=O)(=O)N1CCC2(CC1)N=C(C1CCC(C(C)(C)C)CC1)NC2=O (centres unmarked) [Compound 895, 4-{2-[2-(4-tert-butyl-cyclohexyl)-4-oxo-1,3,8-triaza-spiro[4.5]dec-1-ene-8-sulfonyl]-ethyl}-3,N,N-trimethyl-benzamide]",90
9,"CCC1CCC(C2=NC3(CCN(S(=O)(=O)CCc4ccc(C(=O)N(C)C)cc4C)CC3)C(=O)N2)CC1 (centres unmarked) [Compound 896, 4-{2-[2-(4-ethyl-cyclohexyl)-4-oxo-1,3,8-triaza-spiro[4.5]dec-1-ene-8-sulfonyl]-ethyl}-3,N,N-trimethyl-benzamide]",83
10,"Cc1cc(C(=O)N(C)C)ccc1CCS(=O)(=O)N1CCC2(CC1)N=C(C1CCC(CCCC(F)(F)F)CC1)NC2=O (centres unmarked) [Compound 897, 3,N,N-trimethyl-4-(2-{4-oxo-2-[4-(4,4,4-trifluoro-butyl)-cyclohexyl]-1,3,8-triaza-spiro[4.5]dec-1-ene-8-sulfonyl}-ethyl)-benzamide]",85
11,"Cc1cc(C(=O)N(C)C)ccc1CCS(=O)(=O)N1CCC2(CC1)N=C(c1cccc(OC(F)(F)F)c1)N=C2NCC1CCCCC1 [Compound 898, 4-{2-[4-(cyclohexylmethyl-amino)-2-(3-trifluoromethoxy-phenyl)-1,3,8-triaza-spiro[4.5]deca-1,3-diene-8-sulfonyl]-ethyl}-3,N,N-trimethyl-benzamide]",4.3
12,"Cc1cc(C(=O)N(C)C)ccc1CCS(=O)(=O)N1CCC2(CC1)N=C(c1cccc(OC(F)(F)F)c1)N=C2N(C)C [Compound 899, 4-{2-[4-dimethylamino-2-(3-trifluoromethoxy-phenyl)-1,3,8-triaza-spiro[4.5]deca-1,3-diene-8-sulfonyl]-ethyl}-3,N,N-trimethyl-benzamide]",12
13,"Cc1cc(C(=O)N(C)C)ccc1CCS(=O)(=O)N1CCC2(CC1)N=C(c1cccc(OC(F)(F)F)c1)N/C2=N\O [Compound 900, 4-{2-[4-[(Z)-hydroxyimino]-2-(3-trifluoromethoxy-phenyl)-1,3,8-triaza-spiro[4.5]dec-1-ene-8-sulfonyl]-ethyl}-3,N,N-trimethyl-benzamide]",90
14,"CO/N=C1\NC(c2cccc(OC(F)(F)F)c2)=NC12CCN(S(=O)(=O)CCc1ccc(C(=O)N(C)C)cc1C)CC2 [Compound 901, 4-{2-[4-[(Z)-methoxyimino]-2-(3-trifluoromethoxy-phenyl)-1,3,8-triaza-spiro[4.5]dec-1-ene-8-sulfonyl]-ethyl}-3,N,N-trimethyl-benzamide]",1.9
15,"COCCC1CCC(C2=NC3(CCN(S(=O)(=O)CCc4ccc(C(=O)N(C)C)cc4C)CC3)C(=O)N2)CC1 (centres unmarked) [Compound 902, 4-(2-{2-[4-(2-Methoxy-ethyl)-cyclohexyl]-4-oxo-1,3,8-triaza-spiro[4.5]dec-1-ene-8-sulfonyl}-ethyl)-3,N,N-trimethyl-benzamide]",67
16,"CC(=O)Nc1ccc(CCS(=O)(=O)N2CCC3(CC2)N=C(C2CCCC2)NC3=O)c(C)c1 [Compound 903, N-{4-[2-(2-Cyclopentyl-4-oxo-1,3,8-triaza-spiro[4.5]dec-1-ene-8-sulfonyl)-ethyl]-3-methyl-phenyl}-acetamide]",56
17,"CC(=O)Nc1ccc(CCS(=O)(=O)N2CCC3(CC2)N=C(C2CCC(C(F)(F)F)CC2)NC3=O)c(C)c1 (centres unmarked) [Compound 904, N-(3-methyl-4-{2-[4-oxo-2-(4-trifluoromethyl-cyclohexyl)-1,3,8-triaza-spiro[4.5]dec-1-ene-8-sulfonyl]-ethyl}-phenyl)-acetamide]",69
18,"CCCCC1CCC(C2=NC3(CCN(S(=O)(=O)CCc4ccc(NC(C)=O)cc4C)CC3)C(=O)N2)CC1 (centres unmarked) [Compound 905, N-(4-{2-[2-(4-butyl-cyclohexyl)-4-oxo-1,3,8-triaza-spiro[4.5]dec-1-ene-8-sulfonyl]-ethyl}-3-methyl-phenyl)-acetamide]",75
19,"CC(=O)Nc1ccc(CCS(=O)(=O)N2CCC3(CC2)N=C(c2ccc(C#N)cc2)NC3=O)c(C)c1 [Compound 906, N-(4-{2-[2-(4-cyano-phenyl)-4-oxo-1,3,8-triaza-spiro[4.5]dec-1-ene-8-sulfonyl]-ethyl}-3-methyl-phenyl)-acetamide]",78
20,"CC(=O)Nc1ccc(CCS(=O)(=O)N2CCC3(CC2)N=C(c2cccc(C#N)c2)NC3=O)c(C)c1 [Compound 907, N-(4-{2-[2-(3-cyano-phenyl)-4-oxo-1,3,8-triaza-spiro[4.5]dec-1-ene-8-sulfonyl]-ethyl}-3-methyl-phenyl)-acetamide]",85
21,"CC(=O)Nc1ccc(CCS(=O)(=O)N2CCC3(CC2)N=C(c2ccccc2C#N)NC3=O)c(C)c1 [Compound 908, N-(4-{2-[2-(2-cyano-phenyl)-4-oxo-1,3,8-triaza-spiro[4.5]dec-1-ene-8-sulfonyl]-ethyl}-3-methyl-phenyl)-acetamide]",74
22,"CC(=O)Nc1ccc(CCS(=O)(=O)N2CCC3(CC2)N=C(C2CCC(C(C)(C)C)CC2)NC3=O)c(C)c1 (centres unmarked) [Compound 909, N-(4-{2-[2-(4-tert-butyl-cyclohexyl)-4-oxo-1,3,8-triaza-spiro[4.5]dec-1-ene-8-sulfonyl]-ethyl}-3-methyl-phenyl)-acetamide]",78
23,"CCOCC1CCC(C2=NC3(CCN(S(=O)(=O)CCc4ccc(NC(C)=O)cc4C)CC3)C(=O)N2)CC1 (centres unmarked) [Compound 910, N-(4-{2-[2-(4-ethoxymethyl-cyclohexyl)-4-oxo-1,3,8-triaza-spiro[4.5]dec-1-ene-8-sulfonyl]-ethyl}-3-methyl-phenyl)-acetamide]",64
24,"CCCOC1CCC(C2=NC3(CCN(S(=O)(=O)CCc4ccc(NC(C)=O)cc4C)CC3)C(=O)N2)CC1 (centres unmarked) [Compound 911, N-(3-methyl-4-{2-[4-oxo-2-(4-propoxy-cyclohexyl)-1,3,8-triaza-spiro[4.5]dec-1-ene-8-sulfonyl]-ethyl}-phenyl)-acetamide]",71
25,"CCCCOC1CCC(C2=NC3(CCN(S(=O)(=O)CCc4ccc(NC(C)=O)cc4C)CC3)C(=O)N2)CC1 (centres unmarked) [Compound 912, N-(4-{2-[2-(4-butoxy-cyclohexyl)-4-oxo-1,3,8-triaza-spiro[4.5]dec-1-ene-8-sulfonyl]-ethyl}-3-methyl-phenyl)-acetamide]",98

# From patent US9169254B2, “Spiroimidazolone derivative” (Chugai Seiyaku Kabushiki Kaisha, priority 2009, dated 2015)
